In ChEMBL document CHEMBL3045886, “Benzothiazole Schiff-bases as potential imaging agents for -amyloid plaques in Alzheimers disease” (Med Chem Res, 2013):
Calls of active or inactive are those of the source. The rule behind the calls is not given here.

biological target: T1, Amyloid-beta precursor protein (Homo sapiens, UniProt P05067); assay: Displacement of [125I]IMPY from beta amyloid (unknown origin) isolated from alzheimer's patient brain homogenates after 2 hr by gamma counting analysis
T1 sequence (P05067 whole entry): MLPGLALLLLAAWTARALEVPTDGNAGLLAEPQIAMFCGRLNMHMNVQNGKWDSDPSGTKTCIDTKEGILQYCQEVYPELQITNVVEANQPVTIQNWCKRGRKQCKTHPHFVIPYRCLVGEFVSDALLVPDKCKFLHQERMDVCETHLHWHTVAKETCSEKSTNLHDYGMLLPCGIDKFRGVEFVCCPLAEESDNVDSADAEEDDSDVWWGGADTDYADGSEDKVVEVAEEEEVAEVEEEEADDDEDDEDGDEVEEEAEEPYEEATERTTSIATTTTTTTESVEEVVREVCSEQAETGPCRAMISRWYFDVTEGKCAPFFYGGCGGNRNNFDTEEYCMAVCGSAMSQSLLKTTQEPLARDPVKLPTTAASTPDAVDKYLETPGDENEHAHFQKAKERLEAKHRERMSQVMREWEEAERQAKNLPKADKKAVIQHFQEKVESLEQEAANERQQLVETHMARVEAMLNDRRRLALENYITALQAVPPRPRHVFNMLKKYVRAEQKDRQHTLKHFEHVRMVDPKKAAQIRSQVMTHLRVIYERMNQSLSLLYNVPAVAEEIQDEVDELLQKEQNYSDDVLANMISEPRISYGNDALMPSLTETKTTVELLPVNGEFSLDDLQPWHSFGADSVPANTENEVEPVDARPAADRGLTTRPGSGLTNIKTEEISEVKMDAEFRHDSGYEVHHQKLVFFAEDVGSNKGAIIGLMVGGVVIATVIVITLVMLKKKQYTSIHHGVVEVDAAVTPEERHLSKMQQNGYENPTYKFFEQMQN

SMILES | Ki [nM]
COc1ccc2nc(/N=C/c3ccc(I)cc3)sc2c1 | 103
COc1ccc2nc(/N=C/c3ccc(Br)cc3)sc2c1 | 106
COc1ccc2nc(/N=C/c3ccc([N+](=O)[O-])cc3)sc2c1 | 515
COc1ccc2nc(/N=C/c3ccc(O)cc3)sc2c1 | 34.7

Compounds with a lower Ki, results first:

Ki [nM] | SMILES
10.8 | COc1ccc(/C=N/c2nc3ccc(OC)cc3s2)cc1
4.38 | COc1ccc2nc(/N=C/c3ccc(N(C)C)cc3)sc2c1

biological target: T1, Amyloid-beta precursor protein; assay: Binding affinity to beta amyloid (unknown origin) isolated from alzheimer's patient brain homogenates at 50 uM after 20 min by fluorescence microscopic analysis relative to thioflavin S-treated control; type: tissue-based

Activity | SMILES
Active | COc1ccc2nc(/N=C/c3ccc(N(C)C)cc3)sc2c1
